From patent publication EP0096569A2, “Triazole antifungal agents” (Pfizer Limited, priority 1982, dated 1983) come the findings set out here.

The subject of this experiment is Candida albicans. Briefly: in vivo evaluation in mice inoculated with Candida albicans (protection against lethal infection, PD50). Also on record: unit not given beside the values. Conditions: oral, dose level giving 50% protection against the lethal effect of the infection. The procedure: The in vivo evaluation of the compounds can be carried out at a series of dose levels by intraperitoneal or intravenous injection or by oral administration, to mice which are inoculated with a strain of Candida albicans. Untreated mice die within 48 hours and the dose level at which the compound provides 50% protection against the lethal effect of the infection (PDSO) is noted.
Activity Data in mice (oral PD50 values)
The molecule `Clc1ccc(C(Cl)(Cn2cncn2)Cn2cncn2)c(Cl)c1` [Product of Example 1, 1,3-Bis-(1H-1,2,4-triazol-1-yl)-2-chloro-2-(2,4-dichlorophenyl) propane] had a PD50 of 0.1.
The figure for `Clc1ccc(C(Br)(Cn2cncn2)Cn2cncn2)c(Cl)c1` [Product of Example 2, 1,3-Bis(lH-1,2,4-triazol-1-yl)-2-bromo-2-(2,4-dichlorophenyl) propane] is 0.03.
The figure for `Fc1ccc(C(Br)(Cn2cncn2)Cn2cncn2)c(F)c1` [Product of Example 3, 1,3-Bis(1H-1,2,4-triazol-1-yl)-2-bromo-2-(2,4-difluorophenyl)propane] is 0.3; for `FC(Cn1cncn1)(Cn1cncn1)c1ccc(Cl)cc1Cl` [Product of Example 4, 1,3-Bis(1H-1,2,4-triazol-1-yl)-2-(2,4-dichlorophenyl)-2-fluoro-propane] it is 1.8.
Turning to `Fc1cc(C(Cl)(Cn2cncn2)Cn2cncn2)c(F)cc1Br` [Product of Example 5], the PD50 came to 1.6.
In the case of `Fc1ccc(C(Cl)(Cn2cncn2)Cn2cncn2)c(F)c1` [Product of Example 6] it was 0.9; in that of `ClC(Cn1cncn1)(Cn1cncn1)c1ccc(I)cc1` [Product of Example 7], 0.2; in that of `Clc1ccc(C(Cl)(Cn2cncn2)Cn2cncn2)cc1` [Product of Example 8], 0.3.
The figure for `Clc1ccc(C(Cl)(Cn2cncn2)Cn2cncn2)nc1` [Product of Example 9, 1,3-Bis(1A-1,2,4-triazol-1-yl)-2-chloro-2-(5-chloropyrid-2-yl)propane] is 0.2.
